Results taken from patent US20260049085A1, “CYCLIC COMPOUNDS AND METHODS OF USING SAME” (SCHRÖDINGER, INC., priority 2022, published 2026).

Each compound was assayed against T1, full-length MALT1 protein His-MALT1(1-824) (Homo sapiens, UniProt Q9UDY8) (assay: MALT1 protease assay (Ac-LRSR-AMC tetrapeptide substrate, fluorescence)). Conditions: 1 nM MALT1, 25 μM Ac-LRSR-AMC, 2 h pre-incubation, 8 hr incubation at RT.
T1 construct: full-length MALT1 protein His-MALT1(1-824); His (N); made in house; host or cells: baculovirus-infected insect cells
T1 sequence (Q9UDY8 1-824): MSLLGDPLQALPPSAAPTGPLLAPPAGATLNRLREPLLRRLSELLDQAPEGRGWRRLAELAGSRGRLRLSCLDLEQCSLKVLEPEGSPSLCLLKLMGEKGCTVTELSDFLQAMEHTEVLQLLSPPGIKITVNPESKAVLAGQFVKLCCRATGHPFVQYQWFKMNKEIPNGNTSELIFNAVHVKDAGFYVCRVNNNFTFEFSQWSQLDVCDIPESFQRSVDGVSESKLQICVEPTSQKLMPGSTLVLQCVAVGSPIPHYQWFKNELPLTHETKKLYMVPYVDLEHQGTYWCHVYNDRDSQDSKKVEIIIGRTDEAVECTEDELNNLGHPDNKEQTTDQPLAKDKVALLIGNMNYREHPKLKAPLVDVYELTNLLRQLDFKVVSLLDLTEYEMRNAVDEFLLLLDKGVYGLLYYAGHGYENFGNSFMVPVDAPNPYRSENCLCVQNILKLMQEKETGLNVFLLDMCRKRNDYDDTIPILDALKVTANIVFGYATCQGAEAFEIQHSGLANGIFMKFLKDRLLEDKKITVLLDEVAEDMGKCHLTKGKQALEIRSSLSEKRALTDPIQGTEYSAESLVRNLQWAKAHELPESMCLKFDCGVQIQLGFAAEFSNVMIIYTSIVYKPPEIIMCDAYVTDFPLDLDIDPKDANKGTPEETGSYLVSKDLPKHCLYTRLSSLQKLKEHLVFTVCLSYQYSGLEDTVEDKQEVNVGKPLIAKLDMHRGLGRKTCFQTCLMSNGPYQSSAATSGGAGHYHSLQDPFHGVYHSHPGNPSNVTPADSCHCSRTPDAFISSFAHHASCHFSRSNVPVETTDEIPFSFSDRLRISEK
Assay type: biochemical
Protocol: MALT1 protease activity was assessed in an in vitro assay using a tetrapeptide as substrate and full-length MALT1 protein His-MALT1(1-824) purified from baculovirus-infected insect cells.
The final assay buffer includes 1 nM of MALT1 full-length protein, 25 μM Ac-LRSR-AMC substrate, 50 mM Tris pH 7.5, 600 mM Sodium Citrate, 1 mM DTT, 1 mM EDTA, and 0.05% BSA in 384-well plate format using black microtiter square well plates (Optiplate 384-F, Perkin Elmer).
Test compounds were dissolved in 100% DMSO stock of 10 mM, with final DMSO concentration of 0.1%. Test compounds were pre-incubated with MALT1 protein for 2 h at room temperature. Substrate was added after the pre-incubation and fluorescence signal was measured using Envision at excitation 355 nm and emission 460 nm after 8 hr incubation at RT.
The fluorescence units were transformed to percentage of remaining activity by using the high control (HC, median of fluorescence signal from wells containing MALT1 protein, substrate, and DMSO) and low control (LC, median of fluorescence signal from wells with substrate only) with the formula below: […]
IC50 and Hill coefficients were obtained using Graph Pad Prism (Graph Pad software, Inc, USA) with non-linear regression analysis.
In the case of `C[C@@]1(c2ccn(C(F)F)n2)C[C@H](C(=O)Nc2cnc(-c3ncccn3)c(C(F)(F)F)c2)c2cnc3cc(F)nn3c21` (single isomer, unassigned) [Example 138], the IC50 is reported as 100 to 1000 nM.
In the case of `CC(F)(F)n1cc([C@@]2(C)C[C@@H](C(=O)Nc3cnc(-n4nccn4)c(Cl)c3)c3cnc4cc(F)nn4c32)cn1` (single isomer, unassigned) [Example 123], the IC50 is reported as 100 to 1000 nM.
`Cc1cc(NC(=O)[C@H]2C[C@@](C)(c3cnn(C)c3)c3c2cnc2cc(F)nn32)cnc1OC(F)F` (single isomer, unassigned) [Example 62] was tested, and the IC50 was no less than 1000 nM.
With `CCn1cc([C@]2(C)C[C@@H](C(=O)Nc3cnc(-n4nccn4)c(Cl)c3)c3cnc4cc(F)nn4c32)cn1` (single isomer, unassigned) [Example 21] the IC50 was no less than 1000 nM.
With `Cn1nccc1[C@@]1(C)C[C@H](C(=O)Nc2cnc(-n3nccn3)c(Cl)c2)c2cnc3cc(F)nn3c21` (single isomer, unassigned) [Example 64] the IC50 was 10 to 100 nM.
`C[C@@]1(c2ccn(C(F)F)n2)C[C@@H](C(=O)Nc2cnc(-n3nccn3)c(C(F)(F)F)c2)c2cnc3cc(F)nn3c21` (single isomer, unassigned) [Example 125] gave an IC50 of no less than 1000 nM.
Compound `Cn1cc([C@@]2(C)C[C@@H](C(=O)Nc3ccnc(C(F)(F)F)c3)c3cnc4cc(Cl)nn4c32)cn1` (single isomer, unassigned) [Example 47] has an IC50 of no less than 1000 nM.
Work on `C[C@@]1(c2cnn(CC3CC3)c2)C[C@H](C(=O)Nc2cnc(-n3nccn3)c(Cl)c2)c2cnc3cc(F)nn3c21` (single isomer, unassigned) [Example 100] yielded an IC50 of 10 to 100 nM.
`Cn1ccc([C@]2(C)C[C@@H](C(=O)Nc3cnc(OC(F)F)c(C#N)c3)c3cnc4cc(F)nn4c32)n1` (single isomer, unassigned) [Example 69] was tested, and the IC50 was no less than 1000 nM.
`Cn1cc([C@@]2(C)C[C@@H](C(=O)Nc3cnc(-n4nccn4)c(Cl)c3)c3cnc4c(F)c(F)nn4c32)cn1` (single isomer, unassigned) [Example 15] gave an IC50 of 100 to 1000 nM.
For `CC1(n2ccc([C@]3(C)C[C@@H](C(=O)Nc4cnc(-c5ncccn5)c(C(F)(F)F)c4)c4cnc5cc(F)nn5c43)n2)CC1` (single isomer, unassigned) [Example 159], the IC50 was no less than 1000 nM.
`Cn1cc([C@@]2(C)C[C@@H](C(=O)Nc3cnc(-n4nccn4)c(C(F)(F)F)c3)c3cnc4cc(F)nn4c32)cn1` (single isomer, unassigned) [Example 6] showed an IC50 of 100 to 1000 nM.
`C[C@]1(c2cncs2)C[C@@H](C(=O)Nc2cnc(-n3nccn3)c(Cl)c2)c2cnc3cc(F)nn3c21` (single isomer, unassigned) [Example 39] showed an IC50 of 10 to 100 nM.
Compound `Cc1cc(NC(=O)[C@H]2C[C@@](C)(c3cnn(C)c3)c3c2cnc2cc(F)nn32)cnc1-n1nccn1` (single isomer, unassigned) [Example 58] has an IC50 of no less than 1000 nM.
For `CC1(c2cnn(C(F)F)c2)CC(C(=O)Nc2cnc(-c3ncc(F)cn3)c(Cl)c2)c2cnc3cc(F)nn3c21` (single isomer, unassigned) [Example 135], the IC50 was 100 to 1000 nM.
`C[C@@]1(c2ccn(C(F)F)n2)C[C@H](C(=O)Nc2cnc(-c3ncccn3)c(C(F)(F)F)c2)c2cnc3cc(Cl)nn3c21` (single isomer, unassigned) [Example 173] gave an IC50 of 10 to 100 nM.
In the case of `COc1cc(NC(=O)[C@H]2C[C@@](C)(c3ccn(C(F)F)n3)c3c2cnc2cc(F)nn32)cnc1-c1ncccn1` (single isomer, unassigned) [Example 181], the IC50 is reported as no less than 1000 nM.
Compound `C[C@]1(c2cnn(C3CC3)c2)C[C@@H](C(=O)Nc2cnc(-n3nccn3)c(Cl)c2)c2cnc3cc(F)nn3c21` (single isomer, unassigned) [Example 31] has an IC50 of no less than 1000 nM.
For `C[C@]1(c2cnn(CC3CC3)c2)C[C@@H](C(=O)Nc2cnc(-n3nccn3)c(Cl)c2)c2cnc3cc(F)nn3c21` (single isomer, unassigned) [Example 101], the IC50 was 100 to 1000 nM.
`Cn1cc([C@]2(C)C[C@@H](C(=O)Nc3cnc(-n4nccn4)c(Cl)c3)c3cnc4c(F)c(F)nn4c32)cn1` (single isomer, unassigned) [Example 13] gave an IC50 of no less than 1000 nM.
`C[C@@]1(c2cnn(C(F)F)c2)C[C@@H](C(=O)Nc2cnc(-n3nccn3)c(Cl)c2)c2cnc3cc(F)nn3c21` (single isomer, unassigned) [Example 25] gave an IC50 of no less than 1000 nM.
In the case of `Cn1ccc([C@@]2(C)C[C@@H](C(=O)Nc3cnc(OC(F)F)c(C#N)c3)c3cnc4cc(F)nn4c32)n1` (single isomer, unassigned) [Example 71], the IC50 is reported as no less than 1000 nM.
Work on `C[C@]1(c2cnn(CC(F)(F)F)c2)C[C@@H](C(=O)Nc2cnc(-n3nccn3)c(Cl)c2)c2cnc3cc(F)nn3c21` (single isomer, unassigned) [Example 87] yielded an IC50 of 100 to 1000 nM.
`CC1(n2ccc([C@@]3(C)C[C@@H](C(=O)Nc4cnc(-c5ncccn5)c(C(F)(F)F)c4)c4cnc5cc(F)nn5c43)n2)CC1` (single isomer, unassigned) [Example 161] gave an IC50 of no less than 1000 nM.
For `Cn1cc([C@@]2(C)C[C@@H](C(=O)Nc3cnc(OC(F)(F)F)c(C#N)c3)c3cnc4cc(F)nn4c32)cn1` (single isomer, unassigned) [Example 55], the IC50 was 100 to 1000 nM.
In the case of `CC1(c2ccn(C(F)F)n2)CC(C(=O)Nc2cnc(-c3ncccn3)c(C(F)F)c2)c2cnc3cc(F)nn3c21` (single isomer, unassigned) [Example 194], the IC50 is reported as no less than 1000 nM.
In the case of `C[C@]1(c2ccn(C3CC3)n2)C[C@H](C(=O)Nc2cnc(-n3nccn3)c(Cl)c2)c2cnc3cc(F)nn3c21` (single isomer, unassigned) [Example 152], the IC50 is reported as less than 10 nM.
In the case of `C[C@]1(c2ccn(C(F)F)n2)C[C@@H](C(=O)Nc2ccc(-c3ncccn3)c(C(F)(F)F)c2)c2cnc3cc(F)nn3c21` (single isomer, unassigned) [Example 188], the IC50 is reported as 100 to 1000 nM.
In the case of `C[C@@]1(c2cnn(C(F)F)n2)C[C@@H](C(=O)Nc2cnc(-n3nccn3)c(Cl)c2)c2cnc3cc(F)nn3c21` (single isomer, unassigned) [Example 178], the IC50 is reported as 100 to 1000 nM.
Compound `C[C@]1(c2ccn(C(F)F)n2)C[C@@H](C(=O)Nc2cnc(-c3ncccn3)c(Cl)c2)c2cnc3cc(F)nn3c21` (single isomer, unassigned) [Example 143] has an IC50 of no less than 1000 nM.
Compound `C[C@@]1(c2ccn(C(F)F)n2)C[C@H](C(=O)Nc2cnc(-n3nccn3)c(C(F)(F)F)c2)c2cnc3cc(F)nn3c21` (single isomer, unassigned) [Example 126] has an IC50 of 10 to 100 nM.
`C[C@]1(c2cncs2)C[C@H](C(=O)Nc2cnc(-n3nccn3)c(Cl)c2)c2cnc3cc(F)nn3c21` (single isomer, unassigned) [Example 36] showed an IC50 of less than 10 nM.
Work on `C[C@]1(c2ccn(C(F)F)n2)C[C@H](C(=O)Nc2cnc(-c3ncccn3)c(C(F)(F)F)c2)c2cnc3cc(Cl)nn3c21` (single isomer, unassigned) [Example 171] yielded an IC50 of less than 10 nM.
`CCn1cc([C@@]2(C)C[C@@H](C(=O)Nc3cnc(-n4nccn4)c(Cl)c3)c3cnc4cc(F)nn4c32)cn1` (single isomer, unassigned) [Example 23] was tested, and the IC50 was 100 to 1000 nM.
For `C[C@@]1(c2ccn(C(F)F)n2)C[C@H](C(=O)Nc2ccc(-c3ncccn3)c(Cl)c2)c2cnc3cc(F)nn3c21` (single isomer, unassigned) [Example 191], the IC50 was no less than 1000 nM.
Compound `Cn1ccc([C@@]2(C)C[C@@H](C(=O)Nc3cnc(-n4nccn4)c(C(F)(F)F)c3)c3cnc4cc(F)nn4c32)n1` (single isomer, unassigned) [Example 147] has an IC50 of 100 to 1000 nM.
For `C[C@]1(c2ccn(C(F)F)n2)C[C@H](C(=O)Nc2ccc(-c3ncccn3)c(Cl)c2)c2cnc3cc(F)nn3c21` (single isomer, unassigned) [Example 189], the IC50 was 10 to 100 nM.
`CC1(c2ccn(C(F)F)n2)CC(C(=O)Nc2cnc(-c3ncc(F)cn3)c(C(F)(F)F)c2)c2cnc3cc(F)nn3c21` (single isomer, unassigned) [Example 117] was tested, and the IC50 was 100 to 1000 nM.
For `Cn1ccc([C@]2(C)C[C@H](C(=O)Nc3cnc(-n4nccn4)c(C(F)(F)F)c3)c3cnc4cc(F)nn4c32)n1` (single isomer, unassigned) [Example 146], the IC50 was 100 to 1000 nM.
